Test results from patent US20230077362A1 (CORTEVA AGRISCIENCE LLC, priority 2019, published 2023).
Where two headings read alike, the source gives them in different places.

Experiments:
Format in all cases: in vivo
[1] = system: Beet Armyworm (Spodoptera exigua) ("BAW"), second instar larvae; test: Bioassay on beet armyworm (BAW), 128-well diet tray assay; conditions: Spodoptera exigua
Summary of the method: (§1)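 Mortality (%) is scored well by well after five to seven days at 25° C. on a 14:10 light:dark regime. The value given is the mean of eight wells.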

[2] = system: Green Peach Aphid ("GPA") (Myzus persicae), wingless adult and nymph stages; test: Bioassay on green peach aphid (GPA), foliar spray on infested cabbage seedlings; conditions: Myzus persicae, foliar, 72 h
Experimental: Certain molecules disclosed in this document were tested against GPA using procedures described in the following example. In the reporting of the results, the “GPA Rating Table” was used (See Table Section).
Cabbage seedlings grown in 3-inch pots, with 2-3 small (3-5 cm) true leaves, were used as test substrate. The seedlings were infested with 20-50 GPA (wingless adult and nymph stages) one day prior to chemical application. Four pots with individual seedlings were used for each treatment. Test compounds (2 mg) were dissolved in 2 mL of acetone/methanol (1:1) solvent, forming stock solutions of 1000 ppm test compound. […] A hand-held aspirator-type sprayer was used for spraying a solution to both sides of […] leaves until runoff. Reference plants (solvent check) were sprayed with the diluent only containing 20% by volume of acetone/methanol (1:1) solvent. Treated plants were held in a holding room for three days at approximately 25° C. and ambient relative humidity (RH) prior to grading. Evaluation was conducted by counting the number of live aphids per plant under a microscope.
Corrected % Control=100*(X−Y)/X • where • X=No. of live aphids on solvent check plants and • Y=No. of live aphids on treated plants
The results are indicated in the table entitled “Table ABC: Biological Results” (See Table Section).

[3] = system: Cabbage Looper (Trichoplusia ni) ("CL"), second instar larvae; test: Bioassay on cabbage looper (CL), 128-well diet tray assay; conditions: Trichoplusia ni
Summary of the method: as §1

[4] = read-out: BAW (Biological Results, rating)
[5] = read-out: GPA (Biological Results, rating)
[6] = read-out: CL (Biological Results, rating)

For `CCOCc1ccc(C)cc1N1C(=O)CS/C1=N\C(=O)Nc1ccc(-c2ncn(-c3ccc(OC(F)(F)C(F)(F)F)cc3)n2)cc1F` [Compound J663, (Z)-1-(3-(2-(Ethoxymethyl)-5-methylphenyl)-4-oxothiazolidin-2-ylidene)-3-(2-fluoro-4-(1-(4-(perfluoroethoxy)phenyl)-1H-1,2,4-triazol-3-yl)phenyl)urea], the pest or weed control at 50 µg/cm2 ([1]; read-out: BAW rating) was 50 to 100%, the pest or weed control at 200 µg/mL ([2]; read-out: GPA rating) was 0 to 80% and the pest or weed control at 50 µg/cm2 ([3]; read-out: CL rating) was 50 to 100%.

Work on `CN(C)c1ccc(OCC(F)(F)F)c(N2C(=O)CS/C2=N\C(=O)Nc2ccc(-c3ncn(-c4ccc(OC(F)(F)F)cc4)n3)cc2F)c1` [Compound J193, (Z)-1-(3-(5-(Dimethylamino)-2-(2,2,2-trifluoroethoxy)phenyl)-4-oxothiazolidin-2-ylidene)-3-(2-fluoro-4-(1-(4-(trifluoromethoxy)phenyl)-1H-1,2,4-triazol-3-yl)phenyl)urea] yielded a pest or weed control at 50 µg/cm2 [1, 4] of 50 to 100%, a pest or weed control at 200 µg/mL [2, 5] of 0 to 80% and a pest or weed control at 50 µg/cm2 [3, 6] of 50 to 100%.

Work on `CC(C)c1ccc(N(C)C)cc1N1C(=O)CS/C1=N\C(=O)Nc1ccc(-c2cn(-c3ccc(S(=O)(=O)C(F)(F)F)cc3)cn2)cc1F` [Compound J650, (Z)-1-(3-(5-(Dimethylamino)-2-isopropylphenyl)-4-oxothiazolidin-2-ylidene)-3-(2-fluoro-4-(1-(4-((trifluoromethyl)sulfonyl)phenyl)-1H-imidazol-4-yl)phenyl)urea] yielded a pest or weed control at 50 µg/cm2 ([1]; read-out: BAW rating) of 50 to 100%, a pest or weed control at 200 µg/mL ([2]; read-out: GPA rating) of 0 to 80% and a pest or weed control at 50 µg/cm2 ([3]; read-out: CL rating) of 50 to 100%.

For `O=C(/N=C1\SCC(=O)N1c1ccccc1COCC(F)(F)F)Nc1ccc(-c2ncn(-c3ccc(OC(F)(F)F)cc3)n2)cc1F` [Compound J659, (Z)-1-(2-Fluoro-4-(1-(4-(trifluoromethoxy)phenyl)-1H-1,2,4-triazol-3-yl)phenyl)-3-(4-oxo-3-(2-((2,2,2-trifluoroethoxy)methyl)phenyl)thiazolidin-2-ylidene)urea], the pest or weed control at 50 µg/cm2 ([1]; read-out: BAW rating) was 50 to 100%, the pest or weed control at 200 µg/mL ([2]; read-out: GPA rating) was 0 to 80% and the pest or weed control at 50 µg/cm2 ([3]; read-out: CL rating) was 50 to 100%.

`Cc1ccc(C(C)C)c(N2C(=O)CS/C2=N\C(=O)Nc2ccc(-c3ncn(-c4ccc(C#N)cc4)n3)cc2F)c1` [Compound J287, (Z)-1-(4-(1-(4-Cyanophenyl)-1H-1,2,4-triazol-3-yl)-2-fluorophenyl)-3-(3-(2-isopropyl-5-methylphenyl)-4-oxothiazolidin-2-ylidene)urea] was tested, and the pest or weed control at 50 µg/cm2 [1, 4] was 50 to 100%, the pest or weed control at 200 µg/mL [2, 5] was 0 to 80% and the pest or weed control at 50 µg/cm2 [3, 6] was 50 to 100%.

`Cc1ccc(C(C)C)c(N2C(=O)CS/C2=N\C(=O)Nc2ccc(-c3ncn(-c4ccc(OC(F)(F)F)cc4)n3)cc2C)c1` [Compound J1, (Z)-1-(3-(2-isopropyl-5-methylphenyl)-4-oxothiazolidin-2-ylidene)-3-(2-methyl-4-(1-(4-(trifluoromethoxy)phenyl)-1H-1,2,4-triazol-3-yl)phenyl)urea] showed a pest or weed control at 50 µg/cm2 [1, 4] of 50 to 100%, a pest or weed control at 200 µg/mL [2, 5] of 0 to 80% and a pest or weed control at 50 µg/cm2 [3, 6] of 50 to 100%.

With `Cc1ccc(C(C)C)c(N2C(=O)C(Cl)S/C2=N\C(=O)Nc2ccc(-c3ncn(-c4ccc(OC(F)(F)F)cc4)n3)cc2F)c1` (stereo not drawn) [Compound J32, (Z)-1-(5-chloro-3-(2-isopropyl-5-methylphenyl)-4-oxothiazolidin-2-ylidene)-3-(2-fluoro-4-(1-(4-(trifluoromethoxy)phenyl)-1H-1,2,4-triazol-3-yl)phenyl)urea] the pest or weed control at 50 µg/cm2 [1, 4] was 50 to 100%, the pest or weed control at 200 µg/mL [2, 5] was 0 to 80% and the pest or weed control at 50 µg/cm2 [3, 6] was 50 to 100%.

`Cc1ccc(OCCC(F)(F)F)c(N2C(=O)CS/C2=N\C(=O)Nc2ccc(-c3ncn(-c4ccc(C#N)cc4)n3)cc2F)c1` [Compound J288, (Z)-1-(4-(1-(4-Cyanophenyl)-1H-1,2,4-triazol-3-yl)-2-fluorophenyl)-3-(3-(5-methyl-2-(3,3,3-trifluoropropoxy)phenyl)-4-oxothiazolidin-2-ylidene)urea] was tested, and the pest or weed control at 50 µg/cm2 [1, 4] was 50 to 100%, the pest or weed control at 200 µg/mL [2, 5] was 0 to 80% and the pest or weed control at 50 µg/cm2 [3, 6] was 50 to 100%.

`CCc1cc(-c2ncn(-c3ccc(OC(F)(F)F)cc3)n2)ccc1NC(=O)/N=C1\SCC(=O)N1c1cc(C)ccc1OCC(F)(F)F` [Compound J75, (Z)-1-(2-Ethyl-4-(1-(4-(trifluoromethoxy)phenyl)-1H-1,2,4-triazol-3-yl)phenyl)-3-(3-(5-methyl-2-(2,2,2-trifluoroethoxy)phenyl)-4-oxothiazolidin-2-ylidene)urea] gave a pest or weed control at 50 µg/cm2 [1, 4] of 50 to 100%, a pest or weed control at 200 µg/mL [2, 5] of 0 to 80% and a pest or weed control at 50 µg/cm2 [3, 6] of 50 to 100%.

In the case of `Cc1ccc(COCc2ccc(F)cc2)c(N2C(=O)CS/C2=N\C(=O)Nc2ccc(-c3ncn(-c4ccc(OC(F)(F)F)cc4)n3)cc2F)c1` [Compound J574, (Z)-1-(2-Fluoro-4-(1-(4-(trifluoromethoxy)phenyl)-1H-1,2,4-triazol-3-yl)phenyl)-3-(3-(2-(((4-fluorobenzyl)oxy)methyl)-5-methylphenyl)-4-oxothiazolidin-2-ylidene)urea], the pest or weed control at 50 µg/cm2 ([1]; read-out: BAW rating) is reported as 50 to 100%, the pest or weed control at 200 µg/mL ([2]; read-out: GPA rating) is reported as 0 to 80% and the pest or weed control at 50 µg/cm2 ([3]; read-out: CL rating) is reported as 50 to 100%.

`CCOc1ccc(C)cc1N1C(=O)CS/C1=N\C(=O)Nc1ccc(-c2ncn(-c3ccc(SC(F)(F)F)cc3)n2)cc1F` [Compound J224, (Z)-1-(3-(2-Ethoxy-5-methylphenyl)-4-oxothiazolidin-2-ylidene)-3-(2-fluoro-4-(1-(4-((trifluoromethyl)thio)phenyl)-1H-1,2,4-triazol-3-yl)phenyl)urea] showed a pest or weed control at 50 µg/cm2 [1, 4] of 50 to 100%, a pest or weed control at 200 µg/mL [2, 5] of 0 to 80% and a pest or weed control at 50 µg/cm2 [3, 6] of 50 to 100%.

`Cc1ccc(COCc2ccc(OC(F)(F)F)cc2)c(N2C(=O)CS/C2=N\C(=O)Nc2ccc(-c3ncn(-c4ccc(OC(F)(F)F)cc4)n3)cc2F)c1` [Compound J570, (Z)-1-(2-Fluoro-4-(1-(4-(trifluoromethoxy)phenyl)-1H-1,2,4-triazol-3-yl)phenyl)-3-(3-(5-methyl-2-(((4-(trifluoromethoxy)benzyl)oxy)methyl)phenyl)-4-oxothiazolidin-2-ylidene)urea] was tested, and the pest or weed control at 50 µg/cm2 ([1]; read-out: BAW rating) was 50 to 100%, the pest or weed control at 200 µg/mL ([2]; read-out: GPA rating) was 0 to 80% and the pest or weed control at 50 µg/cm2 ([3]; read-out: CL rating) was 50 to 100%.

Work on `COC(c1ccc(C)cc1N1C(=O)CS/C1=N\C(=O)Nc1ccc(-c2ncn(-c3ccc(OC(F)(F)F)cc3)n2)cc1F)C(F)(F)F` (stereo not drawn) [Compound J181, (Z)-1-(2-Fluoro-4-(1-(4-(trifluoromethoxy)phenyl)-1H-1,2,4-triazol-3-yl)phenyl)-3-(3-(5-methyl-2-(2,2,2-trifluoro-1-methoxyethyl)phenyl)-4-oxothiazolidin-2-ylidene)urea] yielded a pest or weed control at 50 µg/cm2 [1, 4] of 50 to 100%, a pest or weed control at 200 µg/mL [2, 5] of 0 to 80% and a pest or weed control at 50 µg/cm2 [3, 6] of 50 to 100%.

Molecule `COC(C)c1ccc(C)cc1N1C(=O)CS/C1=N\C(=O)Nc1ccc(-c2ncn(-c3ccc(S(=O)(=O)C(F)(F)F)cc3)n2)cc1C` (stereo not drawn) [Compound J362, (Z)-1-(3-(2-(1-Methoxyethyl)-5-methylphenyl)-4-oxothiazolidin-2-ylidene)-3-(2-methyl-4-(1-(4-((trifluoromethyl)sulfonyl)phenyl)-1H-1,2,4-triazol-3-yl)phenyl)urea] has a pest or weed control at 50 µg/cm2 ([1]; read-out: BAW rating) of 50 to 100%, a pest or weed control at 200 µg/mL ([2]; read-out: GPA rating) of 0 to 80% and a pest or weed control at 50 µg/cm2 ([3]; read-out: CL rating) of 50 to 100%.

Molecule `Cc1ccc(C(F)(F)F)c(N2C(=O)C(Cl)S/C2=N\C(=O)NCC(F)c2ccc(-c3ncn(-c4ccc(OC(F)(F)F)cc4)n3)cc2)c1` (stereo not drawn) [Compound H7] has a pest or weed control at 50 µg/cm2 [1, 4] of 50 to 100%, a pest or weed control at 200 µg/mL [2, 5] of 0 to 80% and a pest or weed control at 50 µg/cm2 [3, 6] of 50 to 100%.
